# Measured values from ChEMBL document CHEMBL5608141, “Identification of compartment-specific drug sensitivities in CRC organoid-stroma co-cultures” (2024).
# “And” between values parts separate entries of the source, which are not always exact repeats. Identical values can stand only once.
# Columns and labels:
# Type in all cases: functional, Homo sapiens
# Design in all cases: dose or concentration left out as unconfirmed
# Colon cancer organoid [1] = assay: Identification of compartment-specific drug sensitivities in O06 CRC organoid-stroma F06 CAF co-cultures. Organoid is transduced with Lucferase2-P2A-EGFP lentivirus, fibroblast with Renilla-dsRed lentivirus. Dual-Glo Luciferase assay is used to report viability data.
# Colon cancer organoid [2] = assay: Identification of compartment-specific drug sensitivities in O14 CRC organoid-stroma F14 CAF co-cultures. Organoid is transduced with Lucferase2-P2A-EGFP lentivirus, fibroblast with Renilla-dsRed lentivirus. Dual-Glo Luciferase assay is used to report viability data.
# Colon cancer organoid [3] = assay: Identification of compartment-specific drug sensitivities in O20 CRC organoid-stroma F20 CAF co-cultures. Organoid is transduced with Lucferase2-P2A-EGFP lentivirus, fibroblast with Renilla-dsRed lentivirus. Dual-Glo Luciferase assay is used to report viability data.
# [4] = Transduced with Lucferase2-P2A-EGFP lentivirus
# [5] = Transduced with Renilla-dsRed lentivirus
SMILES,Cell Viability (Colon cancer organoid [1]; [4]),Cell Viability (Colon cancer organoid [1]; [5]),Cell Viability (Colon cancer organoid [2]; [4]),Cell Viability (Colon cancer organoid [2]; [5]),Cell Viability (Colon cancer organoid [3]; [4]),Cell Viability (Colon cancer organoid [3]; [5])
Cc1sc2c(c1C)C(c1ccc(Cl)cc1)=N[C@@H](CC(=O)NCCCCCCCCNC(=O)COc1cccc3c1C(=O)N(C1CCC(=O)NC1=O)C3=O)c1nnc(C)n1-2 (stereo not given in full),5.4511%,19.3995%,5.905%,10.8389%,2.01%,74.9854%
CN1CCN(c2ccc(-c3cccc(CN4CCOCC4)c3)cc2NC(=O)c2c[nH]c(=O)cc2C(F)(F)F)CC1,91.1397%,122.014%,95.9628%,85.2187%,82.8822%,116.555%
Cc1cnc(-c2cc(Cl)ccc2F)cc1-n1c(=O)n(CC(N)=O)c2cnccc21 [TP-008],13.7504%,213.932%,74.2388%,68.4272%,64.1266%,114.054%
CCOc1cn(-c2ccc(F)cc2C)nc1C(=O)Nc1ccc(Oc2ccnc3cc(OC)c(OC)cc23)c(F)c1,87.51% and 89.4828%,84.5689% and 64.7371%,83.4563% and 72.9507%,89.3323% and 81.5085%,229.393% and 192.525%,78.4446% and 96.4847%
CC(C)NC(=O)N1CC[C@H](NC2=Nc3cc(F)ccc3N(CC(F)F)c3ccc(Cl)cc32)C1,50.3719%,97.5535%,92.2307%,99.3787%,55.1322%,142.836%
FC(F)(F)c1ccc2c(c1)nc(-c1cccnc1)n2C1CC1 [MSD-CYP11B2-Negative-control],103.115%,83.1787%,73.196%,81.5774%,98.4614%,114.7%
Cl.Cl.NC1(c2ccc(-c3nc4ccn5c(=O)[nH]nc5c4cc3-c3ccccc3)cc2)CCC1,59.9467%,67.7481%,76.882%,55.4067%,44.0229%,145.22%
O=C(NC[C@@H]1[C@H]2CN(C(=O)OCc3cc(C(F)(F)F)cc(C(F)(F)F)c3)C[C@@H]12)c1ccc2[nH]nnc2c1 [BI 2545],82.8507%,98.3684%,136.863%,113.582%,135.058%,115.933%
CC[C@@H]1C(=O)N(C)c2cnc(Nc3ccc(C(=O)NC4CCN(C)CC4)cc3OC)nc2N1C1CCCC1 [BI-2536],3.341%,324.743%,2.9466%,167.188%,3.721%,168.723%
Cc1ccc2[nH]c(CNCCCc3ccncc3)cc(=O)c2c1 [UCSF924NC],92.2965%,82.507%,107.168%,100.112%,121.808%,109.302%
C=CC(=O)Nc1ccc2[nH]c(=O)n(C3CCN(C(=O)c4ccc(-c5nc6cc[nH]c(=O)c6cc5-c5ccccc5)cc4)CC3)c2c1,100.634%,129.997%,66.8064%,102.36%,102.668%,80.5582%
COc1cc(C#N)ccc1S(=O)(=O)Nc1ccc2c(c1)cc(C)c(=O)n2C,94.9001%,111.598%,105.069%,87.2253%,96.9289%,124.149%
CCOc1cc(N2CCC(O)CC2)ccc1Nc1ncc2c(n1)N(C)c1ccccc1C(=O)N2C,85.6087%,128.987%,113.616%,107.398%,81.3429%,117.331%
CCNC(=O)c1cc2c(-c3cc(C(C)(C)O)ccc3Oc3c(C)cc(F)cc3C)cn(C)c(=O)c2[nH]1 [ABBV-744],91.6049%,287.135%,77.9517%,194.681%,58.4777%,215.224%
CCCc1cc(C)[nH]c(=O)c1CNC(=O)c1cc(-c2ccnc(N3CCN(C)CC3)c2)cc2c1cnn2C(C)C,75.6598%,125.188%,87.4027%,100.827%,56.2508%,146.305%
CO[C@H]1CC[C@H](CNc2ccc(S(=O)(=O)NC(=O)c3ccc(N4CCN(CC5=C(c6ccc(Cl)cc6)CC(C)(C)CC5)CC4)cc3Oc3cnc4[nH]ccc4c3)cc2[N+](=O)[O-])CC1 [A-1211212],8.693%,108.861%,54.5485%,97.9178%,16.4932%,159.244%
O[C@H]1CC[C@H](Nc2ncc3nc(Nc4c(F)cc(F)cc4F)n([C@H]4CCOC4)c3n2)CC1 [TANZISERTIB],96.802%,109.826%,133.231%,127.243%,128.622%,97.8883%
Cc1cc2c(cc1N1C(=O)c3cccc4c(CCCO)ccc(c34)C1=O)n(C)c(=O)n2C,83.3962%,164.269%,52.1608%,93.143%,35.202%,231.762%
Cc1c(NC(=O)c2cc(C(N)=O)nc3cc(F)ccc23)c(C(F)(F)F)nn1Cc1ccc(C#N)cc1 [BAY-876],11.8045%,337.56%,20.1463%,59.1997%,13.842%,190.785%
Cn1cc(CNCC2CCN(c3ncc(C(=O)NO)cn3)CC2)c2ccccc21 [QUISINOSTAT],1.095%,190.694%,6.037%,54.4916%,1.348%,37.1921%
CC(C)C(=O)Nc1n[nH]c2cc(-c3cccc(NS(=O)(=O)C4CC4)c3)ccc12,78.2505%,111.722%,122.353%,104.553%,85.5363%,102.387%
CN1CCN(Cc2ccc(Nc3ncc(Cl)c(Nc4ccccc4S(=O)(=O)N(C)C)n3)cc2)CC1 [DUBERMATINIB],0.5937%,0.7151%,1%,1.414%,1.051%,16.1981%
CNC(=O)c1ccc(Nc2ncc(C(F)(F)F)c(NCc3nccnc3N(C)S(C)(=O)=O)n2)cc1 [DEFACTINIB],119.668%,427.019%,78.9872%,82.2867%,57.0475%,79.7534%
Cc1cc(F)c(C(=O)Nc2cccc(-c3nncn3C(C)C)n2)cc1-n1cnc(C2CC2)c1 [SELONSERTIB],89.6649%,105.018%,143.918%,74.3836%,141.758%,89.2485%
CN(C)C(=O)c1ccc(-c2cc(C(=O)N(C)C3CCCC3)no2)cc1O,126.057%,129.278%,137.993%,111.926%,123.545%,110.433%
CO[C@@H](C)c1c(Nc2ccc([C@@H](N(C)C(=O)C3CCS(=O)(=O)CC3)C(F)(F)F)cc2)cnc2cc(Cl)nn12 [NVS-MALT1-C],50.6957%,73.6522%,71.9282%,88.3744%,83.7008%,108.215%
CC1(C)C(N)=Nc2cc(OCCCCN3Cc4ccc(OCc5cn(CC(=O)N6CCC(CCN7CCCC7)CC6)nn5)cc4C3)c(OCC3CC3)cc21,65.2251%,114.368%,112.762%,94.6071%,70.7317%,125.652%
CN(C)C(=O)Cn1cc(-c2ccc(-c3cncc4ccccc34)cc2)cn1,83.3121%,47.4852%,88.4928%,18.4119%,98.3492%,25.8647%
O=C(Nc1nc2cccc(-c3ccc(CN4CCS(=O)(=O)CC4)cc3)n2n1)C1CC1 [FILGOTINIB],100.525%,92.8016%,113.804%,94.0881%,113.419%,86.0918%
C[C@@]1(Cc2ccc(C#N)cc2)C(=O)N(c2cc(Cl)cc(Cl)c2)c2ncc(C(=O)NC3(c4nc(C5CCC5)no4)CC3)n21 [BI 9446],82.5213%,98.3986%,102.867%,111.855%,72.3076%,136.535%
